Measurements published in patent US11136329B2, “JAK inhibitors” (Vimalan Biosciences, Inc., priority 2019, dated 2021).

Legend:
Assay type in all cases: biochemical
JAK1 = JAK1 (Homo sapiens (Human), UniProt P23458); assay: JAK/TYK2 assay (Kinase Glo luminescence), JAK1; details: 7.5 nM enzyme, 2 uM ATP, 30 uM IRS-1, 1 hr
How it was run: (§1)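 Kinase activity read as Kinase Glo luminescence (inversely related to activity) after enzyme and substrate reacted with compound at 25° C. for 1-2 hours in 20 mM HEPES, 10 mM MgCl2, 0.01% Tween, 1 mM DTT, pH 7.5. Test compound final concentrations spanned 10000 to 0.51 nM in 3-fold steps.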

JAK2 = JAK2 (Homo sapiens (Human), UniProt O60674); assay: JAK/TYK2 assay (Kinase Glo luminescence), JAK2; details: 0.8 nM enzyme, 2 uM ATP, 4 uM pEY, 1 hr
How it was run: as §1

JAK3 = JAK3 (Homo sapiens (Human), UniProt P52333); assay: JAK/TYK2 assay (Kinase Glo luminescence), JAK3; details: 1.5 nM enzyme, 2 uM ATP, 4 uM pEY, 1 hr
How it was run: as §1

TYK2 = TYK2 (Homo sapiens (Human), UniProt P29597); assay: JAK/TYK2 assay (Kinase Glo luminescence), TYK2; details: 9 nM enzyme, 2 uM ATP, 30 uM IRS-1, 1 hr
How it was run: as §1

Chain of TYK2 (P29597 whole entry, species assumed): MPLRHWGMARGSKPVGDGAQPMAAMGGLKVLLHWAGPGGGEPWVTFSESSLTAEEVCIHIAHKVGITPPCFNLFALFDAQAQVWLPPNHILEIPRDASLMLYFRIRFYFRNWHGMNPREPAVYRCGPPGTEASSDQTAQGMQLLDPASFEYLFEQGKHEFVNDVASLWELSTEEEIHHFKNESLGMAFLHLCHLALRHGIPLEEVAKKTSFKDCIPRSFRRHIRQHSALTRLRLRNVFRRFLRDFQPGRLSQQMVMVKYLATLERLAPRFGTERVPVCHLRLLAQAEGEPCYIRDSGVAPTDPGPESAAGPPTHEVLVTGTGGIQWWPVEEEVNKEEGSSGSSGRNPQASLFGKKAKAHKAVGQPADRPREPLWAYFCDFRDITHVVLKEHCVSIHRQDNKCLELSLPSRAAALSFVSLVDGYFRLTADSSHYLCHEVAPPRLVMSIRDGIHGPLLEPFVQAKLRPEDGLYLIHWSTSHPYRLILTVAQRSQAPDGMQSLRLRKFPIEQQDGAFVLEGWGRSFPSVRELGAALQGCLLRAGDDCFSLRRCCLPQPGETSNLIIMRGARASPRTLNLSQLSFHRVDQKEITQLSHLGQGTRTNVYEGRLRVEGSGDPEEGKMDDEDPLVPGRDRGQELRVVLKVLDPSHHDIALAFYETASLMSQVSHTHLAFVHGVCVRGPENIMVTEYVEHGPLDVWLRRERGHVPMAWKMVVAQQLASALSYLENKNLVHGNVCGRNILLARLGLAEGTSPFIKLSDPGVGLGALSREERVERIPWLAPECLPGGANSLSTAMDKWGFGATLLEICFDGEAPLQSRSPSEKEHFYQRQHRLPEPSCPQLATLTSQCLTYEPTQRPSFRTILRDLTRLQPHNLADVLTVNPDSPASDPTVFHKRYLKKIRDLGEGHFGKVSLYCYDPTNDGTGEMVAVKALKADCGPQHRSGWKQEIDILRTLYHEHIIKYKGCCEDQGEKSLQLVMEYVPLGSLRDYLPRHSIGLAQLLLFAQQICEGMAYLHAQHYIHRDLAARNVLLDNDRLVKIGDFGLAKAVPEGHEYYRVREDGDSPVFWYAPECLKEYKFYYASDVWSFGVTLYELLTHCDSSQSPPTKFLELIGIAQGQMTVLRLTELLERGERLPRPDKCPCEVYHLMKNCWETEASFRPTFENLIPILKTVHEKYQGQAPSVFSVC
Chain of JAK1 (P23458 whole entry, species assumed): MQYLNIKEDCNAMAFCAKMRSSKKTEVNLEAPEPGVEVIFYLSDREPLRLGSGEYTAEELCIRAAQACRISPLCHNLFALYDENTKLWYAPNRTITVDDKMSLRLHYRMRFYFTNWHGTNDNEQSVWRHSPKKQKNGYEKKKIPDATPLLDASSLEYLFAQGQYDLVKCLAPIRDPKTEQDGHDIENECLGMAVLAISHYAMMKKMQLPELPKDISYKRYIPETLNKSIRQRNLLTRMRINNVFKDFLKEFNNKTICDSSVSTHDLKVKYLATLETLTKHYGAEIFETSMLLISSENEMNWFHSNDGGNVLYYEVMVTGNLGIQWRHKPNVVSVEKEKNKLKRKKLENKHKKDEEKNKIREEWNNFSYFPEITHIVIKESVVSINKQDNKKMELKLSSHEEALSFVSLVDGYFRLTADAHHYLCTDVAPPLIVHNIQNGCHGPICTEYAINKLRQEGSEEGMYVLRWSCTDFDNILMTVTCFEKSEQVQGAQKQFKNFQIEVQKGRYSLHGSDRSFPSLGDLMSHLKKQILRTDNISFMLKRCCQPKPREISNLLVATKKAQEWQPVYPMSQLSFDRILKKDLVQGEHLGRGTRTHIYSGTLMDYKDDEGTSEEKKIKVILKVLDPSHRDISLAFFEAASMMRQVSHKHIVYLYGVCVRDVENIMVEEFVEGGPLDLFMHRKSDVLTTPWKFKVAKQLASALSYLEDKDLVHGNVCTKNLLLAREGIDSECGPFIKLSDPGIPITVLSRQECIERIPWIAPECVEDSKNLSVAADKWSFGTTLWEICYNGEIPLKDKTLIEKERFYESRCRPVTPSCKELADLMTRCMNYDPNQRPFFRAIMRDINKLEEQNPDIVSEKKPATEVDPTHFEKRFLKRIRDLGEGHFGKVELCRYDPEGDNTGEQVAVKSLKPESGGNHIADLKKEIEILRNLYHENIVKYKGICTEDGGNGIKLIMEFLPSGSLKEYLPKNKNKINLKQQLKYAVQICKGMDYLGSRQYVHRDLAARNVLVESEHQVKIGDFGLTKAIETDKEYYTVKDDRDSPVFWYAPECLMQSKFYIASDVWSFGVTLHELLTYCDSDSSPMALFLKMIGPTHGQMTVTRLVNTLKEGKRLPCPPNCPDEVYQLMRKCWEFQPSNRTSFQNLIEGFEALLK
Chain of JAK3 (P52333 whole entry, species assumed): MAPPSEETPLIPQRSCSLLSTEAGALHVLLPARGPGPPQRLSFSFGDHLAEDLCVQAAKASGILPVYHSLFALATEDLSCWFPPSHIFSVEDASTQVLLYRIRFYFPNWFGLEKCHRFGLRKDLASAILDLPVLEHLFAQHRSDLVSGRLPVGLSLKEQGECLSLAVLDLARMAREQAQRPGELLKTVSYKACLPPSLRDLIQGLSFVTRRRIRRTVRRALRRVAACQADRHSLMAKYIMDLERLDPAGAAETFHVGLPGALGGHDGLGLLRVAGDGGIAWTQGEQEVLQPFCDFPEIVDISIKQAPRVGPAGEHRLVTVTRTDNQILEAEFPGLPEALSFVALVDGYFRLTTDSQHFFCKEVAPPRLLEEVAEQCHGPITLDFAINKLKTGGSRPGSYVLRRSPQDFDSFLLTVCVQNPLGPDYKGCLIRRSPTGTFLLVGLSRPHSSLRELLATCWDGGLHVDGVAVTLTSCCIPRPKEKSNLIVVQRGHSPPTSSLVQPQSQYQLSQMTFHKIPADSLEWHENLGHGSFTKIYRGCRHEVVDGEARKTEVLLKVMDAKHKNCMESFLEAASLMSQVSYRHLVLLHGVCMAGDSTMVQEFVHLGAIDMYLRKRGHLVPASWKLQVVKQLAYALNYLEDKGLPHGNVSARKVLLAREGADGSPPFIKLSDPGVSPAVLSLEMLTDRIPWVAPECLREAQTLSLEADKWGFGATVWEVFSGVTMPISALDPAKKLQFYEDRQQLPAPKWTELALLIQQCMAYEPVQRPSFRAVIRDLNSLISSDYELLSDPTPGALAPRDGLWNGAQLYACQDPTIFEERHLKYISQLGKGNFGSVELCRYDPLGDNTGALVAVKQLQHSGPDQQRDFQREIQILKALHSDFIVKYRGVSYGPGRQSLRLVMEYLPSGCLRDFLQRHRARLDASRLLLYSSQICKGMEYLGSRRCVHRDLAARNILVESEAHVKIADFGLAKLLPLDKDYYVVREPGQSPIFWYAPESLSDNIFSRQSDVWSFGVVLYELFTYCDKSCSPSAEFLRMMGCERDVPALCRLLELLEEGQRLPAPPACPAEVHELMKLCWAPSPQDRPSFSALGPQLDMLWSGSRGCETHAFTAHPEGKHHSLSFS
Chain of JAK2 (O60674 whole entry, species assumed): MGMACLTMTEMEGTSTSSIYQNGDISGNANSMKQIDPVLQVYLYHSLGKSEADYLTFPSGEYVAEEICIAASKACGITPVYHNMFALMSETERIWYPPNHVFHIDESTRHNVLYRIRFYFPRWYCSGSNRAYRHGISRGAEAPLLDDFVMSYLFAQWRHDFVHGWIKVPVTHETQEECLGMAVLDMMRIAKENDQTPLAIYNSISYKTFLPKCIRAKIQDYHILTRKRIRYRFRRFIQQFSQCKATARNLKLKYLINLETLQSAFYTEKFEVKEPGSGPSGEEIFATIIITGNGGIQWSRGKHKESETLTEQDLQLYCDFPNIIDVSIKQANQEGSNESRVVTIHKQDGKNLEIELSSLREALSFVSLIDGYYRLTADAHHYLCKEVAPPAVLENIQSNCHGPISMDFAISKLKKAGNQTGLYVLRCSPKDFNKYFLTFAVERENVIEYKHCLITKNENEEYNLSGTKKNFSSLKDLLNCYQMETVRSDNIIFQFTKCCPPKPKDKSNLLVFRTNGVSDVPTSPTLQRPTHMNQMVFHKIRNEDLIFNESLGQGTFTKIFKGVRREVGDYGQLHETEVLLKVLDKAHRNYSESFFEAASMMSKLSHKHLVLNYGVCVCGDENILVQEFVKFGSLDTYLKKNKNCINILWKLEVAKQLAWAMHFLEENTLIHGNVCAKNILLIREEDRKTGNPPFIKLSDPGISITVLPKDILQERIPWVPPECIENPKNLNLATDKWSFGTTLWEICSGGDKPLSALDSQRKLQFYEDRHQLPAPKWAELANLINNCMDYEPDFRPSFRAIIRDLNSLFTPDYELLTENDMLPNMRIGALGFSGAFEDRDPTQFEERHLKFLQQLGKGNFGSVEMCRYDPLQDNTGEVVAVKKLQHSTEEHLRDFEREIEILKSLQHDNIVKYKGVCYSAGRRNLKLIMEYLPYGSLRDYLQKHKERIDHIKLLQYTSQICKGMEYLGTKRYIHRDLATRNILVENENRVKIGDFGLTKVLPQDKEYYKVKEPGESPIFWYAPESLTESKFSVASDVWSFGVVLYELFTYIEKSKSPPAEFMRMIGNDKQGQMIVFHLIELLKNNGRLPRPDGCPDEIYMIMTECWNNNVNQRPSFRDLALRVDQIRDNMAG

Structure (SMILES)	IC50 (JAK1)	IC50 (JAK2)	IC50 (JAK3)	IC50 (TYK2)
CCC(Cn1ccc2cnc(Nc3cnn(CC(=O)OC(C)C(C)O)c3)nc21)C(C)C (stereo not shown) [Compound 109, 3-hydroxybutan-2-yl 2-(4-((7-(2-ethyl-3-methylbutyl)-7H-pyrrolo[2,3-d]pyrimidin-2-yl)amino)-1H-pyrazol-1-yl)acetate]	< 100 nM	< 100 nM	< 100 nM	< 100 nM
CCC(CC)Cn1ccc2cnc(Nc3cnn(CC(=O)OCCC#N)c3)nc21 [Compound 89, 2-cyanoethyl 2-(4-((7-(2-ethylbutyl)-7H-pyrrolo[2,3-d]pyrimidin-2-yl)amino)-1H-pyrazol-1-yl)acetate]	< 100 nM	< 100 nM	< 100 nM	< 100 nM
CCOC(=O)Cn1cc(Nc2ncc3ccn(C[C@@H](CC)C(C)C)c3n2)cn1 [Compound 135, ethyl (S)-2-(4-((7-(2-ethyl-3-methylbutyl)-7H-pyrrolo[2,3-d]pyrimidin-2-yl)amino)-1H-pyrazol-1-yl)acetate]	< 100 nM	< 100 nM	< 100 nM	< 100 nM
CCOC(=O)Cn1cc(Nc2ncc3ccn(Cc4ccsc4)c3n2)cn1 [Compound 10, ethyl 2-(4-((7-(thiophen-3-ylmethyl)-7H-pyrrolo[2,3-d]pyrimidin-2-yl)amino)-1H-pyrazol-1-yl)acetate]	< 100 nM	< 100 nM	< 100 nM	< 100 nM
CCOC(=O)Cn1cc(Nc2ncc3ccn(CC4CCCC4)c3n2)cn1 [Compound 17, ethyl 2-(4-((7-(cyclopentylmethyl)-7H-pyrrolo[2,3-d]pyrimidin-2-yl)amino)-1H-pyrazol-1-yl)acetate]	< 100 nM	< 100 nM	< 100 nM	< 100 nM
CCC(CC)Cn1ccc2cnc(Nc3cnn(CC(=O)OC(C)C(C)O)c3)nc21 (stereo not shown) [Compound 113, 3-hydroxybutan-2-yl 2-(4-((7-(2-ethylbutyl)-7H-pyrrolo[2,3-d]pyrimidin-2-yl)amino)-1H-pyrazol-1-yl)acetate]	< 100 nM	< 100 nM	< 100 nM	< 100 nM
CCC(Cn1ccc2cnc(Nc3cnn(CC(=O)OCCO)c3)nc21)C(C)C (stereo not shown) [Compound 85, 2-hydroxyethyl 2-(4-((7-(2-ethyl-3-methylbutyl)-7H-pyrrolo[2,3-d]pyrimidin-2-yl)amino)-1H-pyrazol-1-yl)acetate]	< 100 nM	< 100 nM	< 100 nM	< 100 nM
CCOCCOC(=O)Cn1cc(Nc2ncc3ccn(CC(CC)C(C)C)c3n2)cn1 (stereo not shown) [Compound 86, 2-ethoxyethyl 2-(4-((7-(2-ethyl-3-methylbutyl)-7H-pyrrolo[2,3-d]pyrimidin-2-yl)amino)-1H-pyrazol-1-yl)acetate]	< 100 nM	< 100 nM	< 100 nM	< 100 nM
CCC(Cn1ccc2cnc(Nc3cnn(CC(=O)O[C@H](C)CO)c3)nc21)C(C)C (stereo partly drawn) [Compound 106, (R)-1-hydroxypropan-2-yl 2-(4-((7-(2-ethyl-3-methylbutyl)-7H-pyrrolo[2,3-d]pyrimidin-2-yl)amino)-1H-pyrazol-1-yl)acetate]	< 100 nM	< 100 nM	< 100 nM	< 100 nM
CCOC(=O)Cn1ccc(Nc2ncc3ccn(CC(CC)CC)c3n2)n1 [Compound 44, ethyl 2-(3-((7-(2-ethylbutyl)-7H-pyrrolo[2,3-d]pyrimidin-2-yl)amino)-1H-pyrazol-1-yl)acetate]	1000 to 10000 nM	100 to 1000 nM	100 to 1000 nM	100 to 1000 nM
